Measurements: patent US10385024B2, “Compounds and methods for inhibiting NHE-mediated antiport in the treatment of disorders associated with fluid retention or salt overload and gastrointestinal tract disorders” (Ardelyx, Inc., priority 2012, dated 2019)

Assays:
[1] = target: T1, human NHE-3 (Homo sapiens, UniProt P48764); test: Cell-based assay of NHE-3 activity (human NHE3 inhibition assay); conditions: OK cells with human NHE-3 gene, BCECF pH dye, 0-30 μM test compound
T1 construct: expressed in transfected cells; host or cells: Opossum kidney (OK) cells (ATCC), transfected by electroporation
T1 sequence (P48764 26-834): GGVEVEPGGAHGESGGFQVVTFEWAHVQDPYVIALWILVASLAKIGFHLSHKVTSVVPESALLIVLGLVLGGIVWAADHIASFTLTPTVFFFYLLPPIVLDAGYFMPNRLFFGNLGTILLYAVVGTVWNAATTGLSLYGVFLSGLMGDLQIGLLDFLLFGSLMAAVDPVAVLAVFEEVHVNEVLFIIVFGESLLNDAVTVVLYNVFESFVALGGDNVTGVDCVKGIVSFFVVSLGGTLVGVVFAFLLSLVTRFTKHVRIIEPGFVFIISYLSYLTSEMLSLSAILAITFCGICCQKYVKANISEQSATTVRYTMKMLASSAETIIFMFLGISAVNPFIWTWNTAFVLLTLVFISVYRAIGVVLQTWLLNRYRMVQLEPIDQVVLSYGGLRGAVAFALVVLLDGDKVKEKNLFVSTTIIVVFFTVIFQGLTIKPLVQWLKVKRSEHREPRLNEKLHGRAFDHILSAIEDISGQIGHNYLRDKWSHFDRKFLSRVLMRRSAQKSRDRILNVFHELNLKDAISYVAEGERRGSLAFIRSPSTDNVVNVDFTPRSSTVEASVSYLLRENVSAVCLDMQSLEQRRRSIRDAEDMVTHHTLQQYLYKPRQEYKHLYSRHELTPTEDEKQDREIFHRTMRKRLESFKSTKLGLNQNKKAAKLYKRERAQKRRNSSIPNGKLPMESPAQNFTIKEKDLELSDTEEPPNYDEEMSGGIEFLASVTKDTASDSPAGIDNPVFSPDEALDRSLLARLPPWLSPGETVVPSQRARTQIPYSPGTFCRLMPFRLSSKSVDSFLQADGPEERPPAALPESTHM
In short: (§1)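 Opossum kidney cells electroporated with rat or human NHE-3, loaded with 5 μM BCECF-AM in NH4Cl-HEPES pH 7.4 for 30 min at RT, then acidified 10 min in Na+-free choline HEPES. Na+-dependent pH recovery rates from BCECF fluorescence, averaged over ≥2 replicates, gave pIC50.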

[2] = target: T2, Rat NHE-3 (Rattus norvegicus, UniProt P26433); test: Cell-based assay of NHE-3 activity (rat NHE-3 prompt inhibition); conditions: OK cells with rat NHE-3 gene, compound present during pH recovery
T2 construct: expressed in transfected cells; host or cells: Opossum kidney (OK) cells (ATCC), transfected by electroporation
T2 sequence (P26433 29-831): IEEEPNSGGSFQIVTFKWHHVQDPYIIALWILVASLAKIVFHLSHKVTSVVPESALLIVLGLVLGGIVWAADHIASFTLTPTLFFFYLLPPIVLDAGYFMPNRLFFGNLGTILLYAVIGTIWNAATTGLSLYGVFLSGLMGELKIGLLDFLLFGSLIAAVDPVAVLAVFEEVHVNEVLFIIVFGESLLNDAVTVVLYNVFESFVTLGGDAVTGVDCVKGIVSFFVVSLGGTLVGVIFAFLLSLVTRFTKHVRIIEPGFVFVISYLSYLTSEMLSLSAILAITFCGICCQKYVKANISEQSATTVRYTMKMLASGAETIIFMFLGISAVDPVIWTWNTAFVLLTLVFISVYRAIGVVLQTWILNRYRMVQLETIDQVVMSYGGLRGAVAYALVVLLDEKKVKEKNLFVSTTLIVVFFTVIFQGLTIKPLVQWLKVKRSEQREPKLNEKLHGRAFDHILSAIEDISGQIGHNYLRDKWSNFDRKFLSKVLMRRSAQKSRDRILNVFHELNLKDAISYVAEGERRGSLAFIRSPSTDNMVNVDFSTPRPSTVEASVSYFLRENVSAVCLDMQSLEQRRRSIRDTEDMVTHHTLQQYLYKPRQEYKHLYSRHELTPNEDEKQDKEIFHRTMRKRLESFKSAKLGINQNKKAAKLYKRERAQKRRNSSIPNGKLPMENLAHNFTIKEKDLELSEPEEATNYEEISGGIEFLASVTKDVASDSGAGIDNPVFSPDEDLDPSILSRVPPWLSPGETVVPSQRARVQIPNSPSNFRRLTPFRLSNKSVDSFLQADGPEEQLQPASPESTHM
In short: as §1

[3] = target: T2, Rat NHE-3; test: Cell-based assay of NHE-3 activity (persistent inhibition, after washout); conditions: OK cells with rat NHE-3 gene, 60 min incubation, recovery initiated 40 min after compound washout
In short: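 OK cells transiently expressing rat NHE-3 were exposed to 0-30 μM compound in NaCl-HEPES pH 7.4 for 60 min, then washed free of drug before NH4Cl/BCECF-AM loading and acid-loading in Na+-free choline buffer. Na+-dependent pH recovery rates (mean of ≥2 replicates) gave pIC50.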

[4] = system: absorption of sodium from the intestinal lumen; test: Inhibition of intestinal sodium absorption (urinary sodium and fecal form); format: in vivo, Sprague-Dawley rats; conditions: rat; for response vs control in vivo at 3 mg/kg: 3 mg/kg oral gavage, urine 16 h post-dose, asterisks = significance vs vehicle (*P<0.05, **P<0.01, ***P<0.001), read-out: uNa (% of vehicle); for FFS: fecal form score, scale 1 (normal pellet) to 5 (liquid fecal streams), group average, 3 mg/kg oral, 16 h post-dose, vehicle = 1
Description: Urinary sodium concentration and fecal form were measured to assess the ability of selected example compounds to inhibit the absorption of sodium from the intestinal lumen. Eight-week old Sprague-Dawley rats were purchased from Charles River Laboratories (Hollister, Calif.), were housed 2 per cage, and acclimated for at least 3 days before study initiation. Animals were fed Harlan Teklad Global 2018 rodent chow (Indianapolis, Ind.) and water ad libitum throughout the study and maintained in a standard light/dark cycle of 6 AM to 6 PM. On the day of the study, between 4 PM and 5 PM, a group of rats (n=6) were dosed via oral gavage with test compound at the dosage indicated or vehicle (water) at a volume of 10 mL/kg. After dose administration animals were placed in individual metabolic cages where they were also fed the same chow in meal form and watered ad libitum. At 16 h post-dose, the urine samples were collected and fecal form was assessed by two independent observations. Fecal forms were scored according to a common scale associated with increasing fecal water to the wettest observation in the cage's collection funnel (1, normal pellet; 2, pellet adhering to sides of collection funnel due to moisture; 3, loss of normal pellet shape; 4, complete loss of shape with a blotting pattern; 5, liquid fecal streams evident). A rat's fecal form score (FFS) was determined by averaging both observational scores for all rats within a group (n=6). In every study the vehicle group average was 1. For urine samples, the volumes were determined gravimetrically and centrifuged at 3,600×g. The supernatants were diluted 100-fold in deionized Milli-Q water then filtered through a 0.2 μm GHP Pall AcroPrep filter plate (Pall Life Sciences, Ann Arbor, Mich.) prior to analysis by ion chromatography. Ten microliters of each filtered extract was injected onto a Dionex ICS-3000 ion chromatograph system (Dionex, Sunnyvale, Calif.). Cations were separated by an isocratic method using 25 mM methanesulfonic acid as the eluent on an IonPac CS12A 2 mm i.d.×250 mm, 8 μm particle size cation exchange column (Dionex). Sodium was quantified using standards prepared from a cation standard mix containing Li^+, Na^+, NH4^+, K^+, Mg^2+, and Ca^2+ (Dionex). The mean mass of sodium urinated for every group in the 16 h period was determined with the vehicle group usually urinating approximately 21 mg sodium. The urine Na (uNa) for rats in the test groups were expressed as a percentage of the vehicle mean and the means were compared to that of the vehicle group by utilizing a one-way analysis of variance coupled with a Dunnett's post hoc test.

Row | SMILES | Human NHE3 pIC50 [1] | Rat NHE3 pIC50 (prompt) [2] | Rat NHE3 pIC50 (persistent) [3] | response vs control in vivo at 3 mg/kg [4] [%] | FFS [4]
1 | CN(CC(=O)O)CC(=O)NC(CCC(=O)NCCOCCOCCNS(=O)(=O)c1cccc([C@@H]2CN(C)Cc3c(Cl)cc(Cl)cc32)c1)(CCC(=O)NCCOCCOCCNS(=O)(=O)c1cccc([C@@H]2CN(C)Cc3c(Cl)cc(Cl)cc32)c1)CCC(=O)NCCOCCOCCNS(=O)(=O)c1cccc([C@@H]2CN(C)Cc3c(Cl)cc(Cl)cc32)c1 [Example 27] | C (C NHE3 pIC50 > 7) | C (C NHE3 pIC50 > 7) | C (C NHE3 pIC50 > 7) | 35 to 75 | –
2 | CN1Cc2c(Cl)cc(Cl)cc2C(c2cccc(S(=O)(=O)NCCOCCOCCNC(=O)CCC(CCC(=O)NCCOCCOCCNS(=O)(=O)c3cccc(C4CN(C)Cc5c(Cl)cc(Cl)cc54)c3)(CCC(=O)NCCOCCOCCNS(=O)(=O)c3cccc(C4CN(C)Cc5c(Cl)cc(Cl)cc54)c3)NC(=O)C3CCCCC3C(=O)O)c2)C1 (stereo not drawn) [Example 28] | C (C NHE3 pIC50 > 7) | B (B NHE3 pIC50 5-7) | C (C NHE3 pIC50 > 7) | 35 to 75 | –
3 | CN1Cc2c(Cl)cc(Cl)cc2C(c2cccc(S(=O)(=O)NCCOCCOCCNC(=O)CCC(CCC(=O)NCCOCCOCCNS(=O)(=O)c3cccc(C4CN(C)Cc5c(Cl)cc(Cl)cc54)c3)(CCC(=O)NCCOCCOCCNS(=O)(=O)c3cccc(C4CN(C)Cc5c(Cl)cc(Cl)cc54)c3)NC(=O)N(C)CC(O)C(O)C(O)C(O)CO)c2)C1 (stereo not drawn) [Example 29] | C (C NHE3 pIC50 > 7) | C (C NHE3 pIC50 > 7) | C (C NHE3 pIC50 > 7) | 35 to 75 | –
4 | CN1Cc2c(Cl)cc(Cl)cc2[C@H](c2cccc(S(=O)(=O)NCCOCCOCCNC(=O)CCC(CCC(=O)NCCOCCOCCNS(=O)(=O)c3cccc([C@@H]4CN(C)Cc5c(Cl)cc(Cl)cc54)c3)(CCC(=O)NCCOCCOCCNS(=O)(=O)c3cccc([C@@H]4CN(C)Cc5c(Cl)cc(Cl)cc54)c3)NC(=O)Cn3ccnc3)c2)C1 [Example 30] | B (B NHE3 pIC50 5-7) | B (B NHE3 pIC50 5-7) | C (C NHE3 pIC50 > 7) | > 75 | –
5 | CC(O)C(NC(=O)NC(CCC(=O)NCCOCCOCCNS(=O)(=O)c1cccc(C2CN(C)Cc3c(Cl)cc(Cl)cc32)c1)(CCC(=O)NCCOCCOCCNS(=O)(=O)c1cccc(C2CN(C)Cc3c(Cl)cc(Cl)cc32)c1)CCC(=O)NCCOCCOCCNS(=O)(=O)c1cccc(C2CN(C)Cc3c(Cl)cc(Cl)cc32)c1)C(N)=O (stereo not drawn) [Example 31] | C (C NHE3 pIC50 > 7) | C (C NHE3 pIC50 > 7) | C (C NHE3 pIC50 > 7) | < 35 | –
6 | CN1Cc2c(Cl)cc(Cl)cc2[C@H](c2cccc(S(=O)(=O)NCCOCCOCCNC(=O)CCC(CCC(=O)NCCOCCOCCNS(=O)(=O)c3cccc([C@@H]4CN(C)Cc5c(Cl)cc(Cl)cc54)c3)(CCC(=O)NCCOCCOCCNS(=O)(=O)c3cccc([C@@H]4CN(C)Cc5c(Cl)cc(Cl)cc54)c3)NC(=O)NCP(=O)(O)O)c2)C1 [Example 32] | B (B NHE3 pIC50 5-7) | C (C NHE3 pIC50 > 7) | C (C NHE3 pIC50 > 7) | 35 to 75 | 2
7 | CN1Cc2c(Cl)cc(Cl)cc2[C@H](c2cccc(S(=O)(=O)NCCOCCOCCNC(=O)CCC(CCC(=O)NCCOCCOCCNS(=O)(=O)c3cccc([C@@H]4CN(C)Cc5c(Cl)cc(Cl)cc54)c3)(CCC(=O)NCCOCCOCCNS(=O)(=O)c3cccc([C@@H]4CN(C)Cc5c(Cl)cc(Cl)cc54)c3)NC(=O)N3CCN(CCOCCO)CC3)c2)C1 [Example 33] | C (C NHE3 pIC50 > 7) | C (C NHE3 pIC50 > 7) | C (C NHE3 pIC50 > 7) | < 35 | 2
8 | CN1Cc2c(Cl)cc(Cl)cc2[C@H](c2cccc(S(=O)(=O)NCCOCCOCCNC(=O)CCC(CCC(=O)NCCOCCOCCNS(=O)(=O)c3cccc([C@@H]4CN(C)Cc5c(Cl)cc(Cl)cc54)c3)(CCC(=O)NCCOCCOCCNS(=O)(=O)c3cccc([C@@H]4CN(C)Cc5c(Cl)cc(Cl)cc54)c3)NC(=O)NC(CO)CO)c2)C1 [Example 34] | C (C NHE3 pIC50 > 7) | C (C NHE3 pIC50 > 7) | C (C NHE3 pIC50 > 7) | < 35 | –
9 | CN1Cc2c(Cl)cc(Cl)cc2[C@H](c2cccc(S(=O)(=O)NCCOCCOCCNC(=O)CCC(CCC(=O)NCCOCCOCCNS(=O)(=O)c3cccc([C@@H]4CN(C)Cc5c(Cl)cc(Cl)cc54)c3)(CCC(=O)NCCOCCOCCNS(=O)(=O)c3cccc([C@@H]4CN(C)Cc5c(Cl)cc(Cl)cc54)c3)NC(=O)Cc3nnn[nH]3)c2)C1 [Example 38] | C (C NHE3 pIC50 > 7) | B (B NHE3 pIC50 5-7) | C (C NHE3 pIC50 > 7) | < 35 | –
10 | CN1Cc2c(Cl)cc(Cl)cc2[C@H](c2cccc(S(=O)(=O)NCCOCCOCCNC(=O)CCC(CCC(=O)NCCOCCOCCNS(=O)(=O)c3cccc([C@@H]4CN(C)Cc5c(Cl)cc(Cl)cc54)c3)(CCC(=O)NCCOCCOCCNS(=O)(=O)c3cccc([C@@H]4CN(C)Cc5c(Cl)cc(Cl)cc54)c3)NC(=O)N[C@@H](CO)C(=O)O)c2)C1 [Example 39] | C (C NHE3 pIC50 > 7) | C (C NHE3 pIC50 > 7) | C (C NHE3 pIC50 > 7) | < 35 | –
